Measured values taken from patent publication US7482379B2, “Propenoyl hydrazides” (priority 2004, dated 2009).

Assays:
Caspase-8 = Caspase-8 (Homo sapiens, UniProt Q14790); assay: Caspase-8 progress curve inhibition assay; settings: second-order rate constant; Ac-DEVD-AMC substrate; Pipes buffer pH 7.2
Caspase-6 = molecular target: T1, Caspase-6 (Homo sapiens, UniProt P55212); assay: Caspase-6 progress curve inhibition assay; settings: second-order rate constant; Ac-DEVD-AMC substrate; Pipes buffer pH 7.2
T1 sequence (P55212 24-179 limits assumed): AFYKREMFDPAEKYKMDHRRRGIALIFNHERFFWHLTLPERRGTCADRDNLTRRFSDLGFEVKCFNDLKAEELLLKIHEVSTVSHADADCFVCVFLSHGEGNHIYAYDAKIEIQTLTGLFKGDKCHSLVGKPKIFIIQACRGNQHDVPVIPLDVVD
T1 sequence (P55212 194-293 limits assumed): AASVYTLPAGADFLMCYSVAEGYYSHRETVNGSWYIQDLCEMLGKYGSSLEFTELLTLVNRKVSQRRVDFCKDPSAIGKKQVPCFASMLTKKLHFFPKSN

Caspase-7 = molecular target: T2, Caspase-7 (Homo sapiens, UniProt P55210); assay: Caspase-7 progress curve inhibition assay; settings: second-order rate constant; Ac-DEVD-AMC substrate; Pipes buffer pH 7.2
T2 sequence (P55210 24-198 limits assumed): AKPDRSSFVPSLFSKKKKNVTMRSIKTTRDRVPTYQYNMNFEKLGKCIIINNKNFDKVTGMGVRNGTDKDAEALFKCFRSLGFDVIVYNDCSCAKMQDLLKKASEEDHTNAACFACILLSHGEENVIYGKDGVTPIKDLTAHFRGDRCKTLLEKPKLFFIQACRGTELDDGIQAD
T2 sequence (P55210 207-303 limits assumed): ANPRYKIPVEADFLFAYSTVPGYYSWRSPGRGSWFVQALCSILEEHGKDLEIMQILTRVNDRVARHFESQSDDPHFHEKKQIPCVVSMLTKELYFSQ

Caspase-3 = molecular target: T3, Caspase-3 (Homo sapiens, UniProt P42574); assay: Caspase-3 progress curve inhibition assay; settings: second-order rate constant; Ac-DEVD-AMC substrate; Pipes buffer pH 7.2
T3 sequence (P42574 29-175 limits assumed): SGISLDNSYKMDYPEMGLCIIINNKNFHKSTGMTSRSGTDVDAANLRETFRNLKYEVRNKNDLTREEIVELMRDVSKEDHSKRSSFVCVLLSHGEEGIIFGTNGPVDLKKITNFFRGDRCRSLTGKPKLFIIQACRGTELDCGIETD
T3 sequence (P42574 176-277 limits assumed): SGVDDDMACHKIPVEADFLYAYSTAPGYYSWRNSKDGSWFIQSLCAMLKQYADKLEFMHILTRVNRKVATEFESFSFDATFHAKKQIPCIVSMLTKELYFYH

Caspase-9 = molecular target: T4, Caspase-9 (Homo sapiens, UniProt P55211); assay: Caspase-9 progress curve inhibition assay; settings: second-order rate constant; Ac-LEHD-AFC substrate; Hepes buffer pH 7.0 with 0.7 M sodium citrate
T4 sequence (P55211 1-315 limits assumed): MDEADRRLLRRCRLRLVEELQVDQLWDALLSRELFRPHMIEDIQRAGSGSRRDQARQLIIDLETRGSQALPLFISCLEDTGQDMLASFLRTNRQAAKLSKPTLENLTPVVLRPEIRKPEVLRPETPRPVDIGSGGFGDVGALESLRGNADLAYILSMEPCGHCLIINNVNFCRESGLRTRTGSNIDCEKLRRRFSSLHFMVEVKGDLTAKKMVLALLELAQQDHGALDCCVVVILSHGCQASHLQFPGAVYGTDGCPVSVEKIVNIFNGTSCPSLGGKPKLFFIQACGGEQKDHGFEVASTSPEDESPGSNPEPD
T4 sequence (P55211 331-416 limits assumed): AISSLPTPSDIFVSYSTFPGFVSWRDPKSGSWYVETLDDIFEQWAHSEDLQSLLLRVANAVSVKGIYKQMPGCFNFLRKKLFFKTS

Caspase-10 = molecular target: T5, Caspase-10 (Homo sapiens, UniProt Q92851); assay: Caspase-10 progress curve inhibition assay; settings: second-order rate constant; Ac-DEVD-AMC substrate; Hepes/PEG buffer pH 7.0
T5 sequence (Q92851 220-415 limits assumed): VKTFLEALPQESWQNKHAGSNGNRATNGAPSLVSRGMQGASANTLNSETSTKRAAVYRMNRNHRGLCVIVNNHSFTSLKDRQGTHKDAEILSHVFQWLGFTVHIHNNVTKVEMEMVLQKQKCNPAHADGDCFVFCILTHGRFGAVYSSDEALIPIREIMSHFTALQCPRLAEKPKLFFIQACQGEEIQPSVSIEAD
T5 sequence (Q92851 416-521 limits assumed): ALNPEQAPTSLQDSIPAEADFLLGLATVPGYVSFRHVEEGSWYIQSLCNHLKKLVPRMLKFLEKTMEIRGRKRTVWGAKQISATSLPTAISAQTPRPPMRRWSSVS

Caspase-2 = molecular target: T6, Caspase-2 (Homo sapiens, UniProt P42575); assay: Caspase-2 progress curve inhibition assay; settings: second-order rate constant; Cbz-VDVAD-AFC substrate; Pipes buffer pH 7.2
T6 sequence (P42575 170-333 limits assumed): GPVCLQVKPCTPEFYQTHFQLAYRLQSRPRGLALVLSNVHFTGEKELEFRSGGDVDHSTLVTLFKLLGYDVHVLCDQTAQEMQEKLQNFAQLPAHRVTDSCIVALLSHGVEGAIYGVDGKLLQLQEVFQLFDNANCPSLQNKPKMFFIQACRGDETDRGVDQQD
T6 sequence (P42575 348-452 limits assumed): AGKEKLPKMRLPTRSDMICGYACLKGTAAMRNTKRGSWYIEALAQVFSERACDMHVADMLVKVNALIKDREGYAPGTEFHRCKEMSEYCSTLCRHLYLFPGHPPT

Sequence of Caspase-8 (Q14790 217-374 limits assumed): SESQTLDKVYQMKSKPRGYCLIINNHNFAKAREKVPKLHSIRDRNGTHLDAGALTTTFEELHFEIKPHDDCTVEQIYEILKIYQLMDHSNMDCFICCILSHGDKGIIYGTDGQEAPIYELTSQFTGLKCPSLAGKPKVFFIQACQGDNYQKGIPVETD
Sequence of Caspase-8 (Q14790 385-479 limits assumed): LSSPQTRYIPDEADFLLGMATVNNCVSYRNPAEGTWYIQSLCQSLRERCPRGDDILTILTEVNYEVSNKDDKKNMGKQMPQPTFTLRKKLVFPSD

| SMILES | k2 Caspase-8 (Caspase-8) | k2 Caspase-6 (Caspase-6) | k2 Caspase-7 (Caspase-7) | k2 Caspase-3 (Caspase-3) | k2 Caspase-9 (Caspase-9) | k2 Caspase-10 (Caspase-10) | k2 Caspase-2 (Caspase-2) |
| --- | --- | --- | --- | --- | --- | --- | --- |
| CC[C@H](C)[C@H](NC(=O)OCc1ccccc1)C(=O)N[C@@H](CCC(=O)O)C(=O)N[C@H](C(=O)NN(CC(=O)O)C(=O)/C=C/C(=O)N(Cc1ccccc1)Cc1ccccc1)[C@@H](C)O (relative stereo) [Cbz-Ile-Glu-Thr-AAsp-CH═CH—CON(CH2Ph)2, N^2—(N-Benzyloxycarbonylisoleucylglutamylthreonyl)-N^1-carboxylmethyl-N^1-trans-(3-dibenzylcarbamoylpropenoyl)hydrazine] | 39,500 M^−1s^−1 | 83,900 M^−1s^−1 | 1,140 M^−1s^−1 | 9,570 M^−1s^−1 | 1,930 M^−1s^−1 | 7,930 M^−1s^−1 | 76 M⁻¹ s⁻¹ |
| CC[C@H](C)[C@H](NC(=O)OCc1ccccc1)C(=O)N[C@@H](CCC(=O)O)C(=O)N[C@H](C(=O)NN(CC(=O)O)C(=O)/C=C/C(=O)N(C)Cc1ccccc1)[C@@H](C)O (relative stereo) [Cbz-Ile-Glu-Thr-AAsp-CH═CH—CON(CH3)CH2Ph, N^1-trans-(3-Benzylmethylcarbamoylpropenoyl)-N^2—(N-benzyloxycarbonylisoleucylglutamylthreonyl)-N^1-carboxylmethylhydrazine] | 59,700 M^−1s^−1 | 45,900 M^−1s^−1 | 390 M⁻¹ s⁻¹ | 6,000 M^−1s^−1 | 845 M⁻¹ s⁻¹ | 8,500 M^−1s^−1 | 95 M⁻¹ s⁻¹ |
| CC[C@H](C)[C@H](NC(=O)OCc1ccccc1)C(=O)N[C@@H](CCC(=O)O)C(=O)N[C@H](C(=O)NN(CC(=O)O)C(=O)/C=C/C(=O)NCCc1ccccc1)[C@@H](C)O (relative stereo) [Cbz-Ile-Glu-Thr-AAsp-CH═CH—CONHCH2CH2Ph, N^2—(N-BenzyloxycarbonylisoleucylglutamyIthreonyl)-N^1-carboxylmethyl-N^1-trans-(3-phenyethylcarbamoylpropenoyl)hydrazine] | 71,000 M^−1s^−1 | 18,700 M^−1s^−1 | 440 M⁻¹ s⁻¹ | 4,750 M^−1s^−1 | 615 M⁻¹ s⁻¹ | 8,290 M^−1s^−1 | 30 M⁻¹ s⁻¹ |
| CC[C@H](C)[C@H](NC(=O)OCc1ccccc1)C(=O)N[C@@H](CCC(=O)O)C(=O)N[C@H](C(=O)NN(CC(=O)O)C(=O)/C=C/C(=O)NCc1ccccc1)[C@@H](C)O (relative stereo) [Cbz-Ile-Glu-Thr-AAsp-CH═CH—CONHCH2Ph, N^1-trans-(3-Benzylcarbamoylpropenoyl)-N^2—(N-benzyloxycarbonylisoleucylglutamylthreonyl)-N^1-carboxylmethylhydrazine] | 61,300 M^−1s^−1 | 16,800 M^−1s^−1 | 100 M⁻¹ s⁻¹ | 2,250 M^−1s^−1 | 440 M⁻¹ s⁻¹ | 503 M⁻¹ s⁻¹ | 15 M⁻¹ s⁻¹ |
| CC[C@H](C)[C@H](NC(=O)OCc1ccccc1)C(=O)N[C@@H](CCC(=O)O)C(=O)N[C@H](C(=O)NN(CC(=O)O)C(=O)/C=C/C(=O)Nc1ccccc1)[C@@H](C)O (relative stereo) [Cbz-Ile-Glu-Thr-AAsp-CH═CH—CONHPh, N^2—(N-Benzyloxycarbonylisoleucylglutamylthreonyl)-N^1-carboxylmethyl-N^1-trans-(3-phenylcarbamoylpropenoyl)hydrazine] | 245,000 M^−1s^−1 | 99,200 M^−1s^−1 | 920 M⁻¹ s⁻¹ | 7,030 M^−1s^−1 | 940 M⁻¹ s⁻¹ | 9,210 M^−1s^−1 | 365 M⁻¹ s⁻¹ |
